From patent US20250346600A1, “TRICYCLIC DERIVATIVES AND RELATED USES” (MOMA Therapeutics, Inc., priority 2023, published 2025)
Read-outs that look alike come from different tables or passages of the source.

Key:
[1] = test system: HCT116 cells; assay: HCT116 (MSI) 7 day viability, CellTiter Glo; assay type: cell-based; settings: 7 days, read-out: HCT116 (MSI) Viability 7 Day Abs AC50
Outline: (§1)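 Seven-day viability is assessed with CellTiter Glo after compounds, diluted in ten 3-fold steps in DMSO, are exposed to HCT116 (50 cells/well) or HT29 (500 cells/well). Reported IC50 is the geometric mean of at least two independent runs.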

[2] = test system: HT29 cells; assay: HT29 (MSS) 7 day viability, CellTiter Glo; assay type: cell-based; settings: 7 days, read-out: HT29 (MSS) Viability 7 Day CTGAbs AC50
Outline: as §1

[3] = target: T1, Full length WRN protein (aa 2-1432) (Homo sapiens (Human), UniProt Q14191); assay: WRN ATPase ADP-Glo biochemical assay, Assay Format A (10 μM ATP); settings: 0.25 nM WRN, 100 nM C6.18 ssDNA, 30 min preincubation, read-out: ATPase ADPGlo AC50 (uM)- Assay Format A
T1 sequence (Q14191 2-1432): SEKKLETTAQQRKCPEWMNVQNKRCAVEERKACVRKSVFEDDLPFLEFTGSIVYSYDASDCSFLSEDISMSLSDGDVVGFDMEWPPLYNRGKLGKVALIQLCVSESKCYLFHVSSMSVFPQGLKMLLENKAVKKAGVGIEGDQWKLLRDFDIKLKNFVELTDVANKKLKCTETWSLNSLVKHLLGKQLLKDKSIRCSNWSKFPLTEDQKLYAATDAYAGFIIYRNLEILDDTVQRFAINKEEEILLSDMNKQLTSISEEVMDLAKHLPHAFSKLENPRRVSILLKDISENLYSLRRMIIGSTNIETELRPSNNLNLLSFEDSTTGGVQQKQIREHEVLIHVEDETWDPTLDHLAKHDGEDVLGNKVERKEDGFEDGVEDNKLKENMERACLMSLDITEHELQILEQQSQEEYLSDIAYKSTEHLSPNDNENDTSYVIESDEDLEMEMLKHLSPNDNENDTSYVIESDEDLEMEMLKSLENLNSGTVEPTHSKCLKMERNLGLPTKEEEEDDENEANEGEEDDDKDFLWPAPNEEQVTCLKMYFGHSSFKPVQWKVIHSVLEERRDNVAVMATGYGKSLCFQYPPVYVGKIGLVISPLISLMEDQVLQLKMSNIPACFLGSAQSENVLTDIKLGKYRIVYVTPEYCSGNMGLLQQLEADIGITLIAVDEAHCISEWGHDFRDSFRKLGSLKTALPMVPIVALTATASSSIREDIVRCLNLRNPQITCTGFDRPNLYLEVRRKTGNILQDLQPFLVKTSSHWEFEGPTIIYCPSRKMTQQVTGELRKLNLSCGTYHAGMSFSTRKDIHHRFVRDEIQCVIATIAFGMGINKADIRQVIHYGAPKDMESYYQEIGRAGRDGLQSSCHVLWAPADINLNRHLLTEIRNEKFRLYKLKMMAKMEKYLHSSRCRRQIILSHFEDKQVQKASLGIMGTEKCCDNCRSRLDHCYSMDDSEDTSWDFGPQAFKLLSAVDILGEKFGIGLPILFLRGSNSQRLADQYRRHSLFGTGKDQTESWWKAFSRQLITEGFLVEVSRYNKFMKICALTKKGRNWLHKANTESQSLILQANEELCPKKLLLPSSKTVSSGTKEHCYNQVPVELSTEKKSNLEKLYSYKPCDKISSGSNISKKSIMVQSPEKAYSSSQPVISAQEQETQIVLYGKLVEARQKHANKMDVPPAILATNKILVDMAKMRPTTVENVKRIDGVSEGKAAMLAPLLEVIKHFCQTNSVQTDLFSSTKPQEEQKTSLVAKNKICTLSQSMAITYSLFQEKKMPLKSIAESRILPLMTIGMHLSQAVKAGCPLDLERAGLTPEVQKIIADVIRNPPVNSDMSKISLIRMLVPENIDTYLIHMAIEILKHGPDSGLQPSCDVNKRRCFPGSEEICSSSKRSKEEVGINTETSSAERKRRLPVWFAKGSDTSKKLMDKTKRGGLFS
Outline: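 Sf9-expressed FLAG-AVI-TEV-tagged WRN (0.5 nM) preincubated 30 min with compound (11-point 3-fold dilution). Reaction started with 200 nM C6.18 39-mer ssDNA and 20 μM ATP (addition concentrations), run 30 min at room temperature. ADP measured by ADP-Glo luminescence; IC50 from four-parameter fit, geometric mean of ≥2 runs.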

[4] = target: T1, Full length WRN protein (aa 2-1432); assay: WRN ATPase ADP-Glo biochemical assay, Assay Format B (100 μM ATP); settings: 0.25 nM WRN, 100 nM C6.18 ssDNA, 60 min preincubation, read-out: ATPase ADPGlo AC50 (uM)- Assay Format B

Row | SMILES | AC50 [3] [µM] | AC50 [4] [µM] | AC50 ([1]; Homo sapiens, HCT-116, 168 h) [nM] | AC50 ([2]; Homo sapiens, HT-29, 168 h) [nM] | AC50 [1] [nM] | AC50 [2] [nM]
1 | C=CC(=O)N1CCc2nn(-c3ccc(C4CCC4)cc3O)c3c2C(C1)N(C(=O)c1ccc(Br)c2[nH]ncc12)CC3 (stereo not drawn) [Compound 87, 1-(5-(7-bromo-1H-indazole-4-carbonyl)-2-(4-cyclobutyl-2-hydroxyphenyl)-2,3,4,5,5a,6,8,9-octahydro-7H-1,2,5,7-tetraazabenzo[cd]azulen-7-yl)prop-2-en-1-one] | < 0.0015 | 0.0015 to 0.005 | 1 to 100 | > 3000 | – | –
2 | C=CC(=O)N1CC(OCc2nnc(C)s2)c2nn(-c3ccc(C4CC4)cc3)c3c2C(C1)N(C(=O)c1cnc(C(F)(F)F)cc1N)CC3 (stereo not drawn) [Compound 249, 1-(5-(4-amino-6-(trifluoromethyl)nicotinoyl)-2-(4-cyclopropylphenyl)-9-((5-methyl-1,3,4-thiadiazol-2-yl)methoxy)-2,3,4,5,5a,6,8,9-octahydro-7H-1,2,5,7-tetraazabenzo[cd]azulen-7-yl)prop-2-en-1-one] | < 0.0015 | 0.0015 to 0.005 | 1 to 100 | > 3000 | – | –
3 | C=CC(=O)N1CCc2nn(-c3cc(F)c(C4CC4)c(F)c3O)c3c2C(C1)N(C(=O)c1cnc(C(F)(F)F)cc1N)CC3 (stereo not drawn) [Compound 244, 1-(5-(4-amino-6-(trifluoromethyl)nicotinoyl)-2-(4-cyclopropyl-3,5-difluoro-2-hydroxyphenyl)-2,3,4,5,5a,6,8,9-octahydro-7H-1,2,5,7-tetraazabenzo[cd]azulen-7-yl)prop-2-en-1-one] | 0.0015 to 0.005 | 0.015 to 0.055 | 1 to 100 | > 3000 | – | –
4 | C=CC(=O)N1CCc2nn(-c3ccc(C4CCC4)c(O)c3)c3c2C(C1)N(C(=O)c1cnc(C(F)(F)F)c(O)c1)CC3 (stereo not drawn) [Compound 91, 1-(2-(4-cyclobutyl-3-hydroxyphenyl)-5-(5-hydroxy-6-(trifluoromethyl)nicotinoyl)-2,3,4,5,5a,6,8,9-octahydro-7H-1,2,5,7-tetraazabenzo[cd]azulen-7-yl)prop-2-en-1-one] | < 0.0015 | 0.005 to 0.015 | 250 to 500 | > 3000 | – | –
5 | C=CC(=O)N1CC(O)c2nn(-c3ccc(C4CC4)cc3)c3c2C(C1)N(C(=O)c1cnc(C(F)(F)F)cc1N)CC3 (stereo not drawn) [Compound 184, 1-(5-(4-amino-6-(trifluoromethyl)nicotinoyl)-2-(4-cyclopropylphenyl)-9-hydroxy-2,3,4,5,5a,6,8,9-octahydro-7H-1,2,5,7-tetraazabenzo[cd]azulen-7-yl)prop-2-en-1-one] | < 0.0015 | 0.005 to 0.015 | 1 to 100 | > 3000 | – | –
6 | C=CC(=O)N1CC(OCC2CCOCC2)c2nn(-c3ccc(C4CC4)cc3)c3c2C(C1)N(C(=O)c1cnc(C(F)(F)F)cc1N)CC3 (stereo not drawn) [Compound 255, 1-(5-(4-amino-6-(trifluoromethyl)nicotinoyl)-2-(4-cyclopropylphenyl)-9-((tetrahydro-2H-pyran-4-yl)methoxy)-2,3,4,5,5a,6,8,9-octahydro-7H-1,2,5,7-tetraazabenzo[cd]azulen-7-yl)prop-2-en-1-one] | < 0.0015 | 0.005 to 0.015 | 1 to 100 | > 3000 | – | –
7 | C=CC(=O)N1CCc2nn(-c3ccc(C4CC4)cc3C(F)(F)F)c3c2C(C1)N(C(=O)c1cnc(C(F)(F)F)cc1N)CC3 (stereo not drawn) [Compound 256, 1-(5-(4-amino-6-(trifluoromethyl)nicotinoyl)-2-(4-cyclopropyl-2-(trifluoromethyl)phenyl)-2,3,4,5,5a,6,8,9-octahydro-7H-1,2,5,7-tetraazabenzo[cd]azulen-7-yl)prop-2-en-1-one] | 0.015 to 0.055 | > 0.055 | 250 to 500 | > 3000 | – | –
8 | C=CC(=O)N1CCc2nn(-c3ccc(C4CCC4)cc3O)c3c2C(C1)N(C(=O)c1cnc(C(F)(F)F)c(O)c1)CC3 (stereo not drawn) [Compound 25, 1-(2-(4-cyclobutyl-2-hydroxyphenyl)-5-(5-hydroxy-6-(trifluoromethyl)nicotinoyl)-2,3,4,5,5a,6,8,9-octahydro-7H-1,2,5,7-tetraazabenzo[cd]azulen-7-yl)prop-2-en-1-one] | < 0.0015 | 0.005 to 0.015 | 1 to 100 | > 3000 | – | –

Continued, in another order:

Row | AC50 [3] [µM] | AC50 [4] [µM] | SMILES | AC50 ([1]; Homo sapiens, HCT-116, 168 h) [nM] | AC50 ([2]; Homo sapiens, HT-29, 168 h) [nM] | AC50 [1] [nM] | AC50 [2] [nM]
9 | < 0.0015 | 0.015 to 0.055 | C=CC(=O)N1CCc2nn(-c3ccc(C(C)C)cc3)c3c2C(C1)N(C(=O)c1ncc(Br)c2[nH]cnc12)CC3 (stereo not drawn) [Compound 10, 1-(5-(7-bromo-1H-imidazo[4,5-c]pyridine-4-carbonyl)-2-(4-isopropylphenyl)-2,3,4,5,5a,6,8,9-octahydro-7H-1,2,5,7-tetraazabenzo[cd]azulen-7-yl)prop-2-en-1-one] | 1 to 100 | > 3000 | – | –
10 | < 0.0015 | 0.005 to 0.015 | C=CC(=O)N1CCc2nc(-c3ccc(C(C)C)cc3)n3c2C(C1)N(C(=O)c1ccc(Br)c2[nH]cnc12)CC3 (stereo not drawn) [Compound 38, 1-(5-(7-bromo-1H-benzo[d]imidazole-4-carbonyl)-2-(4-isopropylphenyl)-4,5,5a,6,8,9-hexahydro-1,2a,5,7-tetraazabenzo[cd]azulen-7(3H)-yl)prop-2-en-1-one] | 1 to 100 | > 3000 | – | –
11 | < 0.0015 | 0.005 to 0.015 | C=CC(=O)N1CCc2nn(-c3ccc(CC(F)(F)F)cc3O)c3c2C(C1)N(C(=O)c1ccc(Br)c2[nH]cnc12)CC3 (stereo not drawn) [Compound 2, 1-(5-(7-bromo-1H-benzo[d]imidazole-4-carbonyl)-2-(2-hydroxy-4-(2,2,2-trifluoroethyl)phenyl)-2,3,4,5,5a,6,8,9-octahydro-7H-1,2,5,7-tetraazabenzo[cd]azulen-7-yl)prop-2-en-1-one] | 1 to 100 | > 3000 | – | –
12 | < 0.0015 | 0.005 to 0.015 | C=CC(=O)N1CCc2nn(-c3ccc(C4CC4)cc3O)c3c2C(C1)N(C(=O)c1ccc(Br)c2[nH]cnc12)CC3 (stereo not drawn) [Compound 5, 1-(5-(7-bromo-1H-benzo[d]imidazole-4-carbonyl)-2-(4-cyclopropyl-2-hydroxyphenyl)-2,3,4,5,5a,6,8,9-octahydro-7H-1,2,5,7-tetraazabenzo[cd]azulen-7-yl)prop-2-en-1-one] | 1 to 100 | > 3000 | – | –
13 | < 0.0015 | 0.005 to 0.015 | C=CC(=O)N1CC(F)Oc2nn(-c3ccc(C(C)C)cc3)c3c2C(C1)N(C(=O)c1ccc(Br)c2[nH]cnc12)CC3 (stereo not drawn) [Compound 54, 1-(5-(7-bromo-1H-benzo[d]imidazole-4-carbonyl)-9-fluoro-2-(4-isopropylphenyl)-2,3,4,5,5a,6,8,9-octahydro-7H-10-oxa-1,2,5,7-tetraazacycloocta[cd]inden-7-yl)prop-2-en-1-one] | – | > 3000 | > 1000 | –
14 | < 0.0015 | 0.005 to 0.015 | C=CC(=O)N1CCc2nn(-c3ccc(C4CC4)cc3)c3c2C(C1)N(C(=O)c1cnc(Br)cc1N)CC3 (stereo not drawn) [Compound 166, 1-(5-(4-amino-6-bromonicotinoyl)-2-(4-cyclopropylphenyl)-2,3,4,5,5a,6,8,9-octahydro-7H-1,2,5,7-tetraazabenzo[cd]azulen-7-yl)prop-2-en-1-one] | 1 to 100 | > 3000 | – | –
15 | 0.005 to 0.015 | > 0.055 | C=CC(=O)N1CC(C)Oc2nn(-c3ccc(C(C)C)cc3)c3c2C(C1)N(C(=O)c1ccc(Br)c2[nH]cnc12)CC3 (stereo not drawn) [Compound 52, 1-(5-(7-bromo-1H-benzo[d]imidazole-4-carbonyl)-2-(4-isopropylphenyl)-9-methyl-2,3,4,5,5a,6,8,9-octahydro-7H-10-oxa-1,2,5,7-tetraazacycloocta[cd]inden-7-yl)prop-2-en-1-one] | 250 to 500 | > 3000 | – | –
16 | < 0.0015 | 0.005 to 0.015 | C=CC(=O)N1CCc2nn(-c3ccc(C4CC4)cc3)c3c2C(C1)N(C(=O)c1cnc(Cl)cc1N)CC3 (stereo not drawn) [Compound 162, 1-(5-(4-amino-6-chloronicotinoyl)-2-(4-cyclopropylphenyl)-2,3,4,5,5a,6,8,9-octahydro-7H-1,2,5,7-tetraazabenzo[cd]azulen-7-yl)prop-2-en-1-one] | – | – | 1 to 100 | > 3000
17 | < 0.0015 | 0.005 to 0.015 | C=CC(=O)N1CCc2nn(-c3ccc(C(C)C)cc3)c3c2C(C1)N(C(=O)c1ccc(Br)c2[nH]cnc12)CC3 (stereo not drawn) [Compound 7, 1-(5-(7-bromo-1H-benzo[d]imidazole-4-carbonyl)-2-(4-isopropylphenyl)-2,3,4,5,5a,6,8,9-octahydro-7H-1,2,5,7-tetraazabenzo[cd]azulen-7-yl)prop-2-en-1-one] | 1 to 100 | > 3000 | – | –
18 | < 0.0015 | 0.0015 to 0.005 | C=CC(=O)N1CCc2nn(-c3ccc(C4CC4)cc3)c3c2C(C1)N(C(=O)c1cnc(Br)c(F)c1N)CC3 (stereo not drawn) [Compound 182, 1-(5-(4-amino-6-bromo-5-fluoronicotinoyl)-2-(4-cyclopropylphenyl)-2,3,4,5,5a,6,8,9-octahydro-7H-1,2,5,7-tetraazabenzo[cd]azulen-7-yl)prop-2-en-1-one] | 1 to 100 | > 3000 | – | –
